We go through one molecule from patent US9663486B2, “Selectively substituted quinoline compounds” (EISAI R&D MANAGEMENT CO., LTD., priority 2013, dated 2017).

A word on the pIC50: it is −log10 of the IC50, conventionally taken in molar units. A higher pIC50 goes with a low IC50.

This experiment addresses T1, Human TLR7 (Homo sapiens, UniProt Q9NYK1).
T1 construct: stably and individually express human TLR4, TLR7 or TLR9 full-length ORF cDNAs; host or cells: HEK-293 (ATCC) with ELAM-1 NF-kappaB luciferase reporter
T1 sequence (Q9NYK1 27-1049): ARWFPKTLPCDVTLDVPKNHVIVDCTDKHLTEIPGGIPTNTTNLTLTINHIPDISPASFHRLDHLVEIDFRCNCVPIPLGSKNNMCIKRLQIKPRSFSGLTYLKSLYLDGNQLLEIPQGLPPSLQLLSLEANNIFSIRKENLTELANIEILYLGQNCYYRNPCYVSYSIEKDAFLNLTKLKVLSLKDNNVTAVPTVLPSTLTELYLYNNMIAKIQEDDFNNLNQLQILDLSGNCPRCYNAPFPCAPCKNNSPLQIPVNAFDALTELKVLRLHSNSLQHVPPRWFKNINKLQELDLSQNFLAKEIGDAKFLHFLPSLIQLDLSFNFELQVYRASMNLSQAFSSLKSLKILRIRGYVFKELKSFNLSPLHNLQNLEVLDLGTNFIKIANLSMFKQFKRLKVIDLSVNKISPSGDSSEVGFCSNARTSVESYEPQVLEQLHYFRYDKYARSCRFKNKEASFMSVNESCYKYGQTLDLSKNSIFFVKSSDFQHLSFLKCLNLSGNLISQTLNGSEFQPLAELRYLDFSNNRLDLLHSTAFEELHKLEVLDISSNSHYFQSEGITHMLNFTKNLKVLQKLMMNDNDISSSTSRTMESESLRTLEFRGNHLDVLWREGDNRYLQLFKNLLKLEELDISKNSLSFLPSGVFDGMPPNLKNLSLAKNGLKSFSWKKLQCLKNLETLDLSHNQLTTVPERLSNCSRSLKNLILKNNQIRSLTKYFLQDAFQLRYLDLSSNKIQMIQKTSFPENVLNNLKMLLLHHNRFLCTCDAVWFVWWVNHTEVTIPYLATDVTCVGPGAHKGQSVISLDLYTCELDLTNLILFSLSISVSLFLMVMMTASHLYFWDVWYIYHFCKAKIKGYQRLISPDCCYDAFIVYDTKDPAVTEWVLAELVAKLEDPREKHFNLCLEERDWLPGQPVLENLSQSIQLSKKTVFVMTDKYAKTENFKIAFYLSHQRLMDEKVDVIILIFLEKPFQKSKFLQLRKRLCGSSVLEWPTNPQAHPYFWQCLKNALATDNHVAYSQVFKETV
Description: HEK-293 NFkB-luciferase reporter assay, CL097 stimulation. It is filed as cell-based. To be noted: ligand CL097. The source says:
HEK-293 cells (ATCC) were engineered to stably express a NF-kappaB transcription factor inducible E-selectin (ELAM-1) luciferase reporter derived from the plasmid pGL3 (Promega) containing base pairs −2241 bp to −254 bp from the promoter of the human E-selectin gene (Accession No. NM_000450). These cells were then subsequently engineered to stably and individually express human TLR4, TLR7 or TLR9 full-length ORF cDNAs. Human TLR4 cDNA (Accession No. NM_138554) was cloned into pcDNA 3.0 expression vector (Invitrogen). TLR4 transfected cells were also engineered to express human MD-2 co-receptor [MD-2 cDNA (Accession No. NM_015364) was cloned into the pEF-BOS vector] and were supplemented with 10 nM soluble CD14 (R&D Systems) in the media to optimize LPS responsiveness. Human TLR9 cDNA (Accession No. NM_017442) was cloned into the pBluescript II KS vector (Agilent). Human TLR7 cDNA (Accession No. NM_016562) was obtained from OriGene. HEK-293 cells stably expressing human TLR8 (Accession No. NM_138636) or mouse TLR7 (Accession No. NM_133211) were purchased from InvivoGen and were then stably transfected with pNiFty2(NF-kappaB)-luciferase reporter plasmid (InvivoGen). Each cell type was plated in Dulbecco's modified Eagle's medium (DMEM) containing 10% fetal bovine serum (FBS) at a density of 2.22×10^5 cells/ml into a 384-well plate and incubated for 2 days at 37° C., 5% CO2. […]

pIC50: −log10 of the molar value.

As for `C[C@H]1C[C@@H](N)CN(c2ccc(C#N)c3ncccc23)C1` [ER-888840, 5-((3R,5S)-3-amino-5-methylpiperidin-1-yl)quinoline-8-carbonitrile], the negative-log IC50 (pIC50) is 9.70.
